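Each compound was tested at five concentrations against cells in 96-well plates for 48 hours. Abbreviation: GI50, concentration required for 50% inhibition of growth. The concentration for full growth arrest is given as TGI.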
Experiments:
Assay in all cases: NCI-60 cell line screen, 48 h
EKVX NSCLC = tested on: EKVX NSCLC
T-47D breast = tested on: T-47D breast
RXF 393 renal = tested on: RXF 393 renal
HT29 colon = tested on: HT29 colon
NCI/ADR-RES ovarian = tested on: NCI/ADR-RES ovarian
HCT-116 colon = tested on: HCT-116 colon
OVCAR-5 ovarian = tested on: OVCAR-5 ovarian
U251 CNS = tested on: U251 CNS
786-0 renal = tested on: 786-0 renal
HL-60(TB) leukemia = tested on: HL-60(TB) leukemia
MALME-3M melanoma = tested on: MALME-3M melanoma
A498 renal = tested on: A498 renal
SNB-19 CNS = tested on: SNB-19 CNS
IGROV1 ovarian = tested on: IGROV1 ovarian
SF-268 CNS = tested on: SF-268 CNS
COLO 205 colon = tested on: COLO 205 colon
SK-MEL-2 melanoma = tested on: SK-MEL-2 melanoma
MDA-MB-231 breast = tested on: MDA-MB-231 breast
OVCAR-8 ovarian = tested on: OVCAR-8 ovarian
HOP-62 NSCLC = tested on: HOP-62 NSCLC
BT-549 breast = tested on: BT-549 breast
K-562 leukemia = tested on: K-562 leukemia
SR leukemia = tested on: SR leukemia
DU-145 prostate = tested on: DU-145 prostate
UACC-257 melanoma = tested on: UACC-257 melanoma
CAKI-1 renal = tested on: CAKI-1 renal
CCRF-CEM leukemia = tested on: CCRF-CEM leukemia
A549 NSCLC = tested on: A549 NSCLC
OVCAR-4 ovarian = tested on: OVCAR-4 ovarian
SK-OV-3 ovarian = tested on: SK-OV-3 ovarian
HOP-92 NSCLC = tested on: HOP-92 NSCLC
MCF7 breast = tested on: MCF7 breast
RPMI-8226 leukemia = tested on: RPMI-8226 leukemia
NCI-H226 lung = tested on: NCI-H226 lung
SF-295 CNS = tested on: SF-295 CNS
LOX IMVI melanoma = tested on: LOX IMVI melanoma
SNB-75 CNS = tested on: SNB-75 CNS
ACHN renal = tested on: ACHN renal
SK-MEL-28 melanoma = tested on: SK-MEL-28 melanoma
M14 melanoma = tested on: M14 melanoma
HCT-15 colon = tested on: HCT-15 colon
MDA-MB-435 = tested on: MDA-MB-435
NCI-H522 lung = tested on: NCI-H522 lung
HCC-2998 colon = tested on: HCC-2998 colon
OVCAR-3 ovarian = tested on: OVCAR-3 ovarian
MOLT-4 leukemia = tested on: MOLT-4 leukemia
NCI-H460 lung = tested on: NCI-H460 lung
SF-539 CNS = tested on: SF-539 CNS
TK-10 renal = tested on: TK-10 renal
PC-3 prostate = tested on: PC-3 prostate
HS 578T breast = tested on: HS 578T breast
SN12C renal = tested on: SN12C renal
UACC-62 melanoma = tested on: UACC-62 melanoma
KM12 colon = tested on: KM12 colon
SW-620 colon = tested on: SW-620 colon
UO-31 renal = tested on: UO-31 renal
SK-MEL-5 melanoma = tested on: SK-MEL-5 melanoma

With `N#Cc1c(-n2c(Br)c(Br)c3cc(Br)ccc32)[nH]c2c(Br)cc(Br)cc12` the GI50 (EKVX NSCLC) was 2040 nM, the TGI (EKVX NSCLC) was > 50000 nM and the GI50 (T-47D breast) was 1090 nM. It also gave a TGI (T-47D breast) of 6480 nM, a GI50 (RXF 393 renal) of 904 nM and a TGI (RXF 393 renal) of 3480 nM. The GI50 (HT29 colon) was 1480 nM, the TGI (HT29 colon) was 5230 nM and the GI50 (NCI/ADR-RES ovarian) was 1200 nM. The TGI (NCI/ADR-RES ovarian) was 3630 nM, the GI50 (HCT-116 colon) was 986 nM and the TGI (HCT-116 colon) was 2990 nM. The GI50 (OVCAR-5 ovarian) was 2950 nM, the TGI (OVCAR-5 ovarian) was > 50000 nM and the GI50 (U251 CNS) was 1190 nM. The TGI (U251 CNS) was > 31400 nM, the GI50 (786-0 renal) was 1580 nM and the TGI (786-0 renal) was 8780 nM. The GI50 (HL-60(TB) leukemia) was 1240 nM, the TGI (HL-60(TB) leukemia) was 2950 nM and the GI50 (MALME-3M melanoma) was 1680 nM. For the same molecule, the TGI (MALME-3M melanoma) was 7210 nM, the GI50 (A498 renal) was 767 nM and the TGI (A498 renal) was 2400 nM. For the same molecule, the GI50 (SNB-19 CNS) was 1340 nM, the TGI (SNB-19 CNS) was > 50000 nM and the GI50 (IGROV1 ovarian) was 2140 nM. The TGI (IGROV1 ovarian) was > 50000 nM, the GI50 (SF-268 CNS) was 1500 nM and the TGI (SF-268 CNS) was > 50000 nM. The GI50 (COLO 205 colon) was 1100 nM, the TGI (COLO 205 colon) was 3090 nM and the GI50 (SK-MEL-2 melanoma) was 882 nM. For the same molecule, the TGI (SK-MEL-2 melanoma) was 1910 nM, the GI50 (MDA-MB-231 breast) was 1450 nM and the TGI (MDA-MB-231 breast) was > 20600 nM. For the same molecule, the GI50 (OVCAR-8 ovarian) was 1660 nM, the TGI (OVCAR-8 ovarian) was > 29400 nM and the GI50 (HOP-62 NSCLC) was 1380 nM. The TGI (HOP-62 NSCLC) was 4140 nM, the GI50 (BT-549 breast) was 1160 nM and the TGI (BT-549 breast) was 2640 nM. The GI50 (K-562 leukemia) was 735 nM, the TGI (K-562 leukemia) was > 50000 nM and the GI50 (SR leukemia) was 1220 nM. The TGI (SR leukemia) was 6120 nM, the GI50 (DU-145 prostate) was 2250 nM and the TGI (DU-145 prostate) was > 50000 nM. For the same molecule, the GI50 (UACC-257 melanoma) was 1380 nM, the TGI (UACC-257 melanoma) was 5740 nM and the GI50 (CAKI-1 renal) was 1550 nM. The TGI (CAKI-1 renal) was 9730 nM, the GI50 (CCRF-CEM leukemia) was 1380 nM and the TGI (CCRF-CEM leukemia) was > 18200 nM. The GI50 (A549 NSCLC) was 1730 nM, the TGI (A549 NSCLC) was > 50000 nM and the GI50 (OVCAR-4 ovarian) was 1570 nM. For the same molecule, the TGI (OVCAR-4 ovarian) was > 50000 nM, the GI50 (SK-OV-3 ovarian) was 1410 nM and the TGI (SK-OV-3 ovarian) was 4180 nM. For the same molecule, the GI50 (HOP-92 NSCLC) was 383 nM, the TGI (HOP-92 NSCLC) was 1900 nM and the GI50 (MCF7 breast) was 1160 nM. For the same molecule, the TGI (MCF7 breast) was 7110 nM, the GI50 (RPMI-8226 leukemia) was 859 nM and the TGI (RPMI-8226 leukemia) was 2560 nM. The GI50 (NCI-H226 lung) was 1140 nM, the TGI (NCI-H226 lung) was 3200 nM and the GI50 (SF-295 CNS) was 878 nM. For the same molecule, the TGI (SF-295 CNS) was 2000 nM, the GI50 (LOX IMVI melanoma) was 5740 nM and the TGI (LOX IMVI melanoma) was 15700 nM. The GI50 (SNB-75 CNS) was 954 nM, the TGI (SNB-75 CNS) was 3790 nM and the GI50 (ACHN renal) was 3230 nM. For the same molecule, the TGI (ACHN renal) was > 50000 nM, the GI50 (SK-MEL-28 melanoma) was 1490 nM and the TGI (SK-MEL-28 melanoma) was 8530 nM. For the same molecule, the GI50 (M14 melanoma) was 1490 nM, the TGI (M14 melanoma) was 7600 nM and the GI50 (HCT-15 colon) was 938 nM. The TGI (HCT-15 colon) was > 18300 nM, the GI50 (MDA-MB-435) was 2020 nM and the TGI (MDA-MB-435) was 9380 nM. For the same molecule, the GI50 (NCI-H522 lung) was 788 nM, the TGI (NCI-H522 lung) was 2560 nM and the GI50 (HCC-2998 colon) was 1320 nM. The TGI (HCC-2998 colon) was 15700 nM, the GI50 (OVCAR-3 ovarian) was 1940 nM and the TGI (OVCAR-3 ovarian) was > 50000 nM. It also gave a GI50 (MOLT-4 leukemia) of 1310 nM, a TGI (MOLT-4 leukemia) of 4090 nM and a GI50 (NCI-H460 lung) of 1480 nM. For the same molecule, the TGI (NCI-H460 lung) was 6030 nM, the GI50 (SF-539 CNS) was 1470 nM and the TGI (SF-539 CNS) was > 39600 nM. It also gave a GI50 (TK-10 renal) of 1590 nM, a TGI (TK-10 renal) of 4540 nM and a GI50 (PC-3 prostate) of 982 nM. For the same molecule, the TGI (PC-3 prostate) was 3990 nM, the GI50 (HS 578T breast) was 1060 nM and the TGI (HS 578T breast) was 3560 nM. The GI50 (SN12C renal) was 1270 nM, the TGI (SN12C renal) was > 17900 nM and the GI50 (UACC-62 melanoma) was 1140 nM. The TGI (UACC-62 melanoma) was 3210 nM, the GI50 (KM12 colon) was 1450 nM and the TGI (KM12 colon) was 6410 nM. For the same molecule, the GI50 (SW-620 colon) was 1590 nM, the TGI (SW-620 colon) was > 50000 nM and the GI50 (UO-31 renal) was 5450 nM. For the same molecule, the TGI (UO-31 renal) was 16100 nM, the GI50 (SK-MEL-5 melanoma) was 907 nM and the TGI (SK-MEL-5 melanoma) was 1910 nM.
